Assay results: US20260130372A1 (SYNGENTA CROP PROTECTION AG, priority 2022, published 2026)

Tests used:
[1] = tested on: Puccinia recondita; test: leaf disc assay on wheat leaf segments, preventive spray timing; assay type: in vivo
Method: (§1) Streptimidone (CAS: 738-72-7) was purchased from a commercial vendor. A stock solution for streptimidone was produced in DMSO (max. 10 mg/ml). Malonomicin was produced according to Law et al, 2018 (Nature Catalys is |VOL 1|DECEMBER 2018|977-984). A stock solution of malonomicin was produced in water plus 0.025% Tween20.
(§2) Assays to test efficacy of mixtures of streptimidone in combination with malonomicin on the control of fungal pathogens in a leaf disc assay were designed for two 24well plates.
(§3) Table 5 and table 6: Outline of 24well testplate(1) and testplate(2) including concentration of compounds sprayed per well. The upper number in the cell indicates streptimidone concentration (ppm), the lower number malonomicin concentration (ppm). Column (1) holds a dilution series of streptimidone, row (2-D) holds a dilution series of malonomicin. Well 2-D-(1) represents an untreated check. This design was applied for tests including Puccinia recondita (EPPO code: PUCCRE) with preventive and curative spray timing.
(§4) A first set of master plates with 1× concentrated spray solution of the streptimidone stock diluted in water with concentrations according to table 5 or table 6, respectively, was prepared. Each well contained 2% DMSO and 0.025% Tween20. Accordingly, a second set of master plates with 1× concentrated malonomicin stock diluted in water was prepared. Each well of the second set contained 0.025% Tween20. Leaf segments placed on agar in 24well plates are sprayed with 8 ul of solution from the master plate containing streptimidone and the leaf segments were let to dry, followed 2 hours later by 8 ul of solution from the master plate containing malonomicin. After second sprays have dried, leaf segments are infected with fungal spores to obtrain a preventive application timing. Alternativeley, leaf segments infected one day before spray of the compounds are used, resulting in a curative spray timing. In addition, several plates were produced where leaf segments were sprayed 2× in absence of test compound (with only DMSO and Tween20), representing the untreated check samples. For each leaf segment percent leaf coverage of disease symptoms was assessed. Percent leaf coverage reduction relative to the untreated check was calculated. Efficacy of the mixtures was tested in duplicate and on different fungal species. Reported efficacy values are the average of two replicate results.
Puccinia recondita (EPPO Code: PUCCRE) with Preventive Spray Timing.
Wheat (cultivar Kanzler) leaf segments are placed on agar in multiwell plates (24-well format) and sprayed with test solutions (8 ul per well). After drying, the leaf disks are inoculated with a spore suspension of the fungus. After appropriate incubation the activity of a compound is assessed 8 dpi (days after inoculation) as preventive fungicidal activity.

[2] = tested on: Botrytis cinerea; test: liquid culture assay, 96well plate, photometric growth inhibition; assay type: cell-based
Method: as §1, with “1|December” for “1|DECEMBER”
Assays to test efficacy of mixtures of streptimidone in combination with malonomicin on the control of fungal pathogens in a liquid culture assay were designed for a 96well plate.
Table1: outline of 96well testplate including concentration of compounds per well. The upper number in the cell indicates malonomicin concentration (ppm), the lower number streptimidone concentration (ppm). Column (1) holds a dilution series of streptimidone, row (H) holds a dilution series of malonomicin, column (12) holds cells representing untreated check.
The 96 well plate design allows to compare disease control of the mixture with disease control of the respective single compound at the same rate.
A master plate with 10× concentrated solution of the compound stock solutions diluted in water plus 0.025% Tween20 was prepared. The concentration of DMSO (from the stock of streptimidone) and Tween20 was kept constant in all cells of the master plate. 10 μl was transferred from the master plate to a 96well test plate. The nutrient broth containing the fungal spores/mycelia fragments was then added to the test plate to give an end concentration of 1× for the tested compounds (as outlined in table 1). The test plates were incubated in the dark at […] and 96% rh. The inhibition of fungal growth was determined photometrically after ca 3 days, and percent fungal growth reduction relative to the untreated check was calculated. Efficacy of the mixtures was tested on a fungal species: Botrytis cinerea (EPPO code: BOTRCI)
Conidia of the fungus from cryogenic storage were directly mixed into nutrient broth (Vogel's minimal media).

[3] = tested on: Puccinia recondita; test: leaf disc assay on wheat leaf segments, curative spray timing; assay type: in vivo
Method: as §1, §2, §3, §4
Puccinia recondita (EPPO Code: PUCCRE) with Curative Spray Timing.
Wheat (cultivar Kanzler) leaf segments are placed on agar in multiwell plates (24-well format). The leaf disks are then inoculated with a spore suspension of the fungus. One day after inoculation the test solution is sprayed (8 ul per well). After appropriate incubation the activity of a compound is assessed 8 dpi (days after inoculation) as curative fungicidal activity

With NC[C@@H]1NC(=O)C(C(=O)CC(NC(=O)[C@@H](N)CO)(C(=O)O)C(=O)O)=C1O [malonomicin, {[(2S)-2-amino-3-hydroxypropanoyl]amino}{2-[(5S)-5-(aminomethyl)-4-hydroxy-2-oxo-2,5-dihydro-1H-pyrrol-3-yl]-2-oxoethyl}malonic acid] the “control of fungal growth (reduction of symptoms on the leaf segment)” value ([1]; well 2-D(2), malonomicin 200 ppm solo) was 100%, the “control of fungal growth (reduction of symptoms on the leaf segment)” value ([1]; well 2-D(3), malonomicin 20 ppm solo) was 100% and the “control of fungal growth (reduction of symptoms on the leaf segment)” value ([1]; well 2-D(4), malonomicin 6.67 ppm solo) was 80%. For the same molecule, the “control of fungal growth (reduction of symptoms on the leaf segment)” value ([1]; well 2-D(5), malonomicin 2.22 ppm solo) was 10%, the “control of fungal growth (reduction of symptoms on the leaf segment)” value ([1]; well 2-D(6), malonomicin 0.74 ppm solo) was 0% and the “control of fungal growth” value ([2]; well H(2), malonomicin 1000 ppm solo) was 70%. The “control of fungal growth” value ([2]; well H(3), malonomicin 500 ppm solo) was 70%, the “control of fungal growth” value ([2]; well H(4), malonomicin 250 ppm solo) was 70% and the “control of fungal growth” value ([2]; well H(5), malonomicin 125 ppm solo) was 70%. The “control of fungal growth” value ([2]; well H(6), malonomicin 62.5 ppm solo) was 70%, the “control of fungal growth” value ([2]; well H(7), malonomicin 31.25 ppm solo) was 50% and the “control of fungal growth” value ([2]; well H(8), malonomicin 15.63 ppm solo) was 0%. The “control of fungal growth” value ([2]; well H(9), malonomicin 7.81 ppm solo) was 0%, the “control of fungal growth” value ([2]; well H(10), malonomicin 3.00 ppm solo) was 0% and the “control of fungal growth” value ([2]; well H(11), malonomicin 1.00 ppm solo) was 0%. For the same molecule, the “control of fungal growth (reduction of symptoms on the leaf segment)” value ([3]; curative, well 2-D(2), malonomicin 200 ppm solo) was 100%, the “control of fungal growth (reduction of symptoms on the leaf segment)” value ([3]; curative, well 2-D(3), malonomicin 20 ppm solo) was 100% and the “control of fungal growth (reduction of symptoms on the leaf segment)” value ([3]; curative, well 2-D(4), malonomicin 6.67 ppm solo) was 100%. For the same molecule, the “control of fungal growth (reduction of symptoms on the leaf segment)” value ([3]; curative, well 2-D(5), malonomicin 2.22 ppm solo) was 70% and the “control of fungal growth (reduction of symptoms on the leaf segment)” value ([3]; curative, well 2-D(6), malonomicin 0.74 ppm solo) was 35%.
For C=C/C(C)=C/[C@H](C)C(=O)C[C@H](O)CC1CC(=O)NC(=O)C1 [streptimidone, Streptimidone], the “control of fungal growth (reduction of symptoms on the leaf segment)” value ([1]; well 1-A(1), streptimidone 200 ppm solo) was 10%, the “control of fungal growth (reduction of symptoms on the leaf segment)” value ([1]; well 1-B(1), streptimidone 100 ppm solo) was 35% and the “control of fungal growth (reduction of symptoms on the leaf segment)” value ([1]; well 1-C(1), streptimidone 50 ppm solo) was 0%. For the same molecule, the “control of fungal growth (reduction of symptoms on the leaf segment)” value ([1]; well 1-D(1), streptimidone 25 ppm solo) was 0%, the “control of fungal growth (reduction of symptoms on the leaf segment)” value ([1]; well 2-A(1), streptimidone 12.5 ppm solo) was 10% and the “control of fungal growth (reduction of symptoms on the leaf segment)” value ([1]; well 2-B(1), streptimidone 6.25 ppm solo) was 0%. The “control of fungal growth (reduction of symptoms on the leaf segment)” value ([1]; well 2-C(1), streptimidone 3.13 ppm solo) was 0%, the “control of fungal growth” value ([2]; well A(1), streptimidone 100 ppm solo) was 0% and the “control of fungal growth” value ([2]; well B(1), streptimidone 50 ppm solo) was 0%. For the same molecule, the “control of fungal growth” value ([2]; well C(1), streptimidone 25 ppm solo) was 0%, the “control of fungal growth” value ([2]; well D(1), streptimidone 12.5 ppm solo) was 0% and the “control of fungal growth” value ([2]; well E(1), streptimidone 6.25 ppm solo) was 0%. For the same molecule, the “control of fungal growth” value ([2]; well F(1), streptimidone 3.125 ppm solo) was 0%, the “control of fungal growth” value ([2]; well G(1), streptimidone 1.56 ppm solo) was 0% and the “control of fungal growth (reduction of symptoms on the leaf segment)” value ([3]; curative, well 1-A(1), streptimidone 200 ppm solo) was 20%. The “control of fungal growth (reduction of symptoms on the leaf segment)” value ([3]; curative, well 1-B(1), streptimidone 100 ppm solo) was 20%, the “control of fungal growth (reduction of symptoms on the leaf segment)” value ([3]; curative, well 1-C(1), streptimidone 50 ppm solo) was 25% and the “control of fungal growth (reduction of symptoms on the leaf segment)” value ([3]; curative, well 1-D(1), streptimidone 25 ppm solo) was 35%. The “control of fungal growth (reduction of symptoms on the leaf segment)” value ([3]; curative, well 2-B(1), streptimidone 6.25 ppm solo) was 0%, the “control of fungal growth (reduction of symptoms on the leaf segment)” value ([3]; curative, well 2-C(1), streptimidone 3.13 ppm solo) was 0% and the “control of fungal growth (reduction of symptoms on the leaf segment)” value ([3]; in vivo) was 0%.
